Several values for one entry are separate records, joined by “and”; a condition that tells them apart may be missing. Equal entries are not always repeated.
Columns and labels:
[1] = system: female Hartley guinea pigs; test: Adjuvant test in oily phase: delayed hypersensitivity cutaneous test to ovalbumin; type: in vivo, guinea pig
Description: (§1) The tests were carried out on female Hartley guinea pigs of 350 g. The administration was done by intradermal injection in the plantar pad of each of the rear paws. The ovalbumin (constituting the antigen) in the dose of 0.5 mg was prepared in 0.1 ml of an emulsion of saline isotonic solution, in an oily phase constituted either by the Freund incomplete adjuvant (FIA), or by the Freund complete adjuvant (FCA) formed by the FIA to which is added 0.1 mg of whole cells of Mycobacterium smegmatis. The compound according to the invention was administered in the dose of 0.1 mg added in the emulsion containing the FIA.
Eighteen days after this immunisation, possible reactions of delayed hypersensibility to the antigen were sought by injecting by the intradermal route 0.005 mg of ovalbumin into the side of the animals, and the reaction at the point of injection was observed 48 hours later. The diameter in mm of the thus provoked reaction was measured.

rabbits = test: Pyrogenicity on rabbits (French Pharmacopea protocol); type: in vivo; settings: for Rise in temperature °C.: individual animals (batch of three), listed as product according to the invention
Description: The pyrogenic effect of the product according to the invention on rabbits was studied, following the protocol of the French Pharmacopea, 9e edition, II-235. Each test was carried out on a batch of three rabbits. The administration was first done by the subcutaneous route, then by the intravenous route. The results of these tests, that is to say the increase in temperature in the treated animals, were as follows: […]

mice = test: Toxicity by intravenous injection in mice; type: in vivo; settings: mice aged two months
Description: The toxicity of the product according to the invention was studied by intravenous injection in mice aged two months.

[2] = system: female Hartley guinea pigs; test: Adjuvant test in oily phase: specific serum antibody level to ovalbumin; type: in vivo, guinea pig
Description: In these tests, the growth of the specific antibody level of a given antigen when the latter is injected, with or without the adjuvant compound according to the invention, in the midst of a water and oil emulsion was followed.
as §1
Twenty one days after the injection, the animals were bled. On the serum collected, the specific antibody content of the ovalbumin was measured by precipitation of the antibody-antigen complex in the equivalence zone. The amount of protein nitrogen contained in this precipitate was evaluated according to the Folin method. These values express the amounts, in micrograms, of nitrogen precipitable by the antigen, per ml of serum.

CC(=O)NC1C(Oc2ccc(N)cc2)OC(CO)C(O)C1O[C@H](C)C(=O)N[C@@H](C)C(=O)N[C@H](CCC(=O)O)C(N)=O (stereo partly drawn) [p-amino-phenyl-Mur-NAc-L-Ala-D-iso-Gln, 2-(p-amino-phenyl-2-acetamido-2-deoxy-3-O-D-glucopyranosyl)-D-propionyl-L-alanyl-D-isoglutamine]
Delayed-type hypersensitivity reaction to the antigen (in words) ([1]; administered in oily emulsion): induces a hypersensitivity reaction of the delayed type
Cutaneous test diameter in mm ([1]; guinea pigs, challenge 0.005 mg ovalbumin intradermal 18 days after immunisation, read 48 hours later, adjuvant 100 μg): 19.5±4.5 mm
Pyrogenicity (in words) (rabbits; doses where adjuvant properties are manifested): apyrogenic
Rise in temperature °C. (rabbits; intravenous, 1.0 mg/kg): 0 °C and 0.4 °C and 0.6 °C
Rise in temperature °C. (rabbits; sub-cutaneous, 0.100 mg/kg, 0.1 mg/kg): 0 °C (2×) and 0.1 °C
Rise in temperature °C. (rabbits; sub-cutaneous, 0.500 mg/kg, 0.5 mg/kg): 0 °C and 0.2 °C and 0.1 °C
lethal dose (LD50) (mice): very much higher than that of the dosage at which the product manifests its adjuvant properties
Effect on level of antibodies to the administered antigen (in words) ([2]; administered in oily emulsion): distinctly facilitates the increase in the level of antibodies
Seric antibodies (nitrogen precipitable by the antigen per ml of serum) ([2]; guinea pigs, ovalbumin 0.5 mg intradermal in water-in-oil emulsion, adjuvant 100 μg, serum 21 days after injection, average values): 3500 µg/mL

From patent US4185089A, “Immunological adjuvant constituted by the p-amino-phenyl derivative of N-acetyl-muramyl-L-alanyl-D-isoglutamine” (Agence Nationale de Valorisation de la Recherche (ANVAR), priority 1976, dated 1980)
